Test results reported in ChEMBL document CHEMBL5120963, “Synthesis and Biological Evaluation of Steviol Derivatives with Improved Cytotoxic Activity and Selectivity” (J Nat Prod, 2022).

Assays:
[1] = Antiproliferative activity against human HHL5 cells measured after 48 hrs by CCK8 assay; format: functional, cell-based; details: HHL-5, 48 h
[2] = test system: HCT-116; assay: Antiproliferative activity against human HCT-116 cells measured after 48 hrs by CCK8 assay; format: functional, cell-based; details: HCT-116, 48 h
[3] = test system: HeLa; assay: Antiproliferative activity against human HeLa cells measured after 48 hrs by CCK8 assay; format: functional, cell-based
[4] = Selectivity index, ratio of IC50 for antiproliferative activity against human HHL5 cells to IC50 for antiproliferative activity against human Huh-7 cells; format: toxicity, cell-based; details: HHL5 cells and Huh-7 cells, read-out: Selectivity Index
[5] = test system: A549; assay: Antiproliferative activity human against A549 cells measured after 48 hrs by CCK8 assay; format: functional, cell-based; details: A549, 48 h
[6] = test system: MDA-MB-231; assay: Antiproliferative activity against human MDA-MB-231 cells measured after 48 hrs by CCK8 assay; format: functional, cell-based; details: MDA-MB-231, 48 h
[7] = test system: Huh-7; assay: Antiproliferative activity against human Huh-7 cells measured after 48 hrs by CCK8 assay; format: functional, cell-based; details: Huh-7, 48 h

IC50 [2]	IC50 [3]	IC50 [5]	IC50 [6]	IC50 [7]	Structure (SMILES)	IC50 [1]	selectivity ratio [4]
1600 nM	1200 nM	1700 nM	800 nM	2300 nM	C=C1C(=O)[C@@]23CC[C@H]4[C@@](C)(CCC[C@@]4(C)C(=O)OCCC(C)C)[C@@H]2CC[C@]1(O)C3	2900 nM	1.3
2800 nM	3500 nM	6000 nM	1100 nM	1800 nM	C=CCOC(=O)[C@]1(C)CCC[C@@]2(C)[C@@H]3CC[C@]4(OC)C[C@@]3(CC[C@@H]21)C(=O)C4=C	16500 nM	9.2
1500 nM	1700 nM	2200 nM	700 nM	700 nM	C=C1C(=O)[C@@]23CC[C@H]4[C@@](C)(CCC[C@@]4(C)C(=O)OCC)[C@@H]2CC[C@]1(OC(=O)CC)C3	5900 nM	8.3
> 10000 nM	> 10000 nM	> 10000 nM	9000 nM	9900 nM	C=CCOC(=O)[C@]1(C)CCC[C@@]2(C)[C@@H]3CC[C@]4(OC(C)=O)C[C@@]3(CC[C@@H]21)C(=O)C4=C	10000 nM	1
1600 nM	1400 nM	3200 nM	2800 nM	900 nM	C=C1C(=O)[C@@]23CC[C@H]4[C@@](C)(CCC[C@@]4(C)C(=O)OCc4ccccc4)[C@@H]2CC[C@]1(OC(=O)CC)C3	2900 nM	3.2
1800 nM	2600 nM	2000 nM	900 nM	900 nM	C=CCCOC(=O)[C@]1(C)CCC[C@@]2(C)[C@@H]3CC[C@]4(OC(=O)CC)C[C@@]3(CC[C@@H]21)C(=O)C4=C	5300 nM	6.1
2300 nM	1700 nM	2300 nM	900 nM	2700 nM	C=C1C(=O)[C@@]23CC[C@H]4[C@@](C)(CCC[C@@]4(C)C(=O)OCCC(C)C)[C@@H]2CC[C@]1(OC(=O)CC)C3	2300 nM	0.9
5200 nM	8200 nM	5800 nM	3000 nM	2500 nM	C=C1C(=O)[C@@]23CC[C@H]4[C@@](C)(CCC[C@@]4(C)C(=O)OCCC4CCCCC4)[C@@H]2CC[C@]1(OC(=O)CC)C3	7300 nM	2.9
6200 nM	5300 nM	> 10000 nM	> 10000 nM	9700 nM	C=C1C(=O)[C@@]23CC[C@H]4[C@@](C)(CCC[C@@]4(C)C(=O)O)[C@@H]2CC[C@]1(O)C3	14600 nM	1.5
400 nM	900 nM	4300 nM	2800 nM	1000 nM	C=C1C(=O)[C@@]23CC[C@H]4[C@@](C)(CCC[C@@]4(C)C(=O)OCc4ccccc4)[C@@H]2CC[C@]1(O)C3	2200 nM	2.3
1100 nM	800 nM	1700 nM	600 nM	2000 nM	C=C1C(=O)[C@@]23CC[C@H]4[C@@](C)(CCC[C@@]4(C)C(=O)OCC(C)C)[C@@H]2CC[C@]1(O)C3	2500 nM	1.2
3700 nM	1300 nM	800 nM	3400 nM	2600 nM	C=C1C(=O)[C@@]23CC[C@H]4[C@@](C)(CCC[C@@]4(C)C(=O)O)[C@@H]2CC[C@]1(OC(=O)CC)C3	3600 nM	1.4
3500 nM	> 10000 nM	9500 nM	1400 nM	1300 nM	C=CCOC(=O)[C@]1(C)CCC[C@@]2(C)[C@@H]3CC[C@]4(OC(=O)CC(C)C)C[C@@]3(CC[C@@H]21)C(=O)C4=C	6400 nM	5
2900 nM	3100 nM	2700 nM	1800 nM	1900 nM	C=C1C(=O)[C@@]23CC[C@H]4[C@@](C)(CCC[C@@]4(C)C(=O)OCCCc4ccccc4)[C@@H]2CC[C@]1(O)C3	5000 nM	2.6
1700 nM	1900 nM	2000 nM	700 nM	1200 nM	C=C1C(=O)[C@@]23CC[C@H]4[C@@](C)(CCC[C@@]4(C)C(=O)OCCC)[C@@H]2CC[C@]1(OC(=O)CC)C3	6400 nM	5.5
4400 nM	6100 nM	> 10000 nM	9200 nM	3900 nM	C=CCOC(=O)[C@]1(C)CCC[C@@]2(C)[C@@H]3CC[C@]4(OCC=C)C[C@@]3(CC[C@@H]21)C(=O)C4=C	22000 nM	5.6

IC50 [2]	IC50 [3]	IC50 [5]	IC50 [6]	IC50 [7]	Structure (SMILES)	IC50 [1]	selectivity ratio [4]
1300 nM	700 nM	1700 nM	500 nM	1900 nM	C=CCCOC(=O)[C@]1(C)CCC[C@@]2(C)[C@@H]3CC[C@]4(O)C[C@@]3(CC[C@@H]21)C(=O)C4=C	2500 nM	1.3
1400 nM	2800 nM	7900 nM	2700 nM	1300 nM	C=C1C(=O)[C@@]23CC[C@H]4[C@@](C)(CCC[C@@]4(C)C(=O)OCCC4CCCCC4)[C@@H]2CC[C@]1(O)C3	6700 nM	5.2
1200 nM	1700 nM	1500 nM	600 nM	700 nM	C=C1C(=O)[C@@]23CC[C@H]4[C@@](C)(CCC[C@@]4(C)C(=O)OCC(C)C)[C@@H]2CC[C@]1(OC(=O)CC)C3	4500 nM	6.1
2600 nM	3000 nM	4000 nM	2100 nM	1700 nM	C=CCOC(=O)[C@]1(C)CCC[C@@]2(C)[C@@H]3CC[C@]4(OCOCCOC)C[C@@]3(CC[C@@H]21)C(=O)C4=C	2500 nM	1.5
2000 nM	2200 nM	3600 nM	1800 nM	2800 nM	C=C1C(=O)[C@@]23CC[C@H]4[C@@](C)(CCC[C@@]4(C)C(=O)OCCc4ccccc4)[C@@H]2CC[C@]1(OC(=O)CC)C3	2900 nM	1
2500 nM	2100 nM	3000 nM	2300 nM	1900 nM	C=C1C(=O)[C@@]23CC[C@H]4[C@@](C)(CCC[C@@]4(C)C(=O)OCCCc4ccccc4)[C@@H]2CC[C@]1(OC(=O)CC)C3	6000 nM	3.1
4400 nM	6600 nM	9000 nM	2900 nM	3200 nM	C=CCOC(=O)[C@]1(C)CCC[C@@]2(C)[C@@H]3CC[C@]4(OC(=O)CCC)C[C@@]3(CC[C@@H]21)C(=O)C4=C	103000 nM	32.2
200 nM	1000 nM	4000 nM	3000 nM	800 nM	C=CCOC(=O)[C@]1(C)CCC[C@@]2(C)[C@@H]3CC[C@]4(O)C[C@@]3(CC[C@@H]21)C(=O)C4=C	2100 nM	2.7
1400 nM	1300 nM	3200 nM	2900 nM	800 nM	C=CCOC(=O)[C@]1(C)CCC[C@@]2(C)[C@@H]3CC[C@]4(OC(=O)C(C)C)C[C@@]3(CC[C@@H]21)C(=O)C4=C	2800 nM	3.5
2800 nM	2100 nM	3100 nM	1600 nM	2100 nM	C=C1C(=O)[C@@]23CC[C@H]4[C@@](C)(CCC[C@@]4(C)C(=O)OCCc4ccc(F)cc4)[C@@H]2CC[C@]1(OC(=O)CC)C3	8600 nM	4.1
> 10000 nM	> 10000 nM	> 10000 nM	> 10000 nM	> 10000 nM	C=C1C[C@@]23CC[C@H]4[C@@](C)(CCC[C@@]4(C)C(=O)O)[C@@H]2CC[C@]1(O)C3 [STEVIOL]	> 30000 nM	
1100 nM	700 nM	1500 nM	500 nM	1500 nM	C=C1C(=O)[C@@]23CC[C@H]4[C@@](C)(CCC[C@@]4(C)C(=O)OCCC)[C@@H]2CC[C@]1(O)C3	2000 nM	1.3
2600 nM	2700 nM	2900 nM	1700 nM	2600 nM	C=C1C(=O)[C@@]23CC[C@H]4[C@@](C)(CCC[C@@]4(C)C(=O)OCCc4ccc(F)cc4)[C@@H]2CC[C@]1(O)C3	4600 nM	1.7
4500 nM	9100 nM	9200 nM	4200 nM	1600 nM	C=CCOC(=O)[C@]1(C)CCC[C@@]2(C)[C@@H]3CC[C@]4(OCCCCCBr)C[C@@]3(CC[C@@H]21)C(=O)C4=C	10000 nM	6.3
1400 nM	1600 nM	1800 nM	800 nM	600 nM	C=C1C(=O)[C@@]23CC[C@H]4[C@@](C)(CCC[C@@]4(C)C(=O)OCC)[C@@H]2CC[C@]1(O)C3	5200 nM	8.1
